Laboratory results published in US10508105B2, “Indazole compounds as mGluR4 allosteric potentiators, compositions, and methods of treating neurological dysfunction” (Vanderbilt University, priority 2017, dated 2019).
Where two headings read alike, the source gives them in different places.

How the values were obtained:
Brain-Plasma Kp = assay type: in vivo; details: brain and plasma
human mGlu4 = human mGlu4 (Homo sapiens (Human), UniProt Q14833); experiment: mGlu4 PAM assay in human mGlu4/Gqi5 cells with ~EC20 glutamate (Hamamatsu FDSS); assay type: cell-based; details: ~EC20 concentration of glutamate
Chain of human mGlu4 (Q14833 33-912): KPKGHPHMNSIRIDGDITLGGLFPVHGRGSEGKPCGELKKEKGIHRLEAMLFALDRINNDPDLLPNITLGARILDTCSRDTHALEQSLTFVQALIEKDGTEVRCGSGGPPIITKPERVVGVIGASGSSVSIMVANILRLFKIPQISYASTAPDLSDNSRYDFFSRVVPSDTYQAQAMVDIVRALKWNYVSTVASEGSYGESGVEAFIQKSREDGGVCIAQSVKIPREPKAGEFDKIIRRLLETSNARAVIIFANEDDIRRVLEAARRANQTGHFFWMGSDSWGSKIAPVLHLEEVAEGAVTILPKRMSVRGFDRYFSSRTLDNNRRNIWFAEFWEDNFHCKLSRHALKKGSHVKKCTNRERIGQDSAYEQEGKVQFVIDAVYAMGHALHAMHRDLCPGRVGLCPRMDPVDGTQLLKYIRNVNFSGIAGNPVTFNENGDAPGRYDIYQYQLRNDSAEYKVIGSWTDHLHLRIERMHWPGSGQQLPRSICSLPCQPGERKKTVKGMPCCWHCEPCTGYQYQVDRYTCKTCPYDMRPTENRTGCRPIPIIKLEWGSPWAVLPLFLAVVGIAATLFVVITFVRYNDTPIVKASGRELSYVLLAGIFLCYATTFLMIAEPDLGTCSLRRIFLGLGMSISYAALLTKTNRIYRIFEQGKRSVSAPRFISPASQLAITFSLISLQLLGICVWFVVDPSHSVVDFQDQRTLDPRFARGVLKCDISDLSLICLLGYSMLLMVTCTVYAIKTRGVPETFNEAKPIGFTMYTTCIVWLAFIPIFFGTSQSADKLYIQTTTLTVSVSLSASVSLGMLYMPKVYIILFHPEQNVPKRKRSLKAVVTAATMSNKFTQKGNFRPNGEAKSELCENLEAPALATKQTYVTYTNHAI
Protocol: The disclosed compounds and compositions can be evaluated for their ability to act as a potentiatior of metabotropic glutamate receptor activity, in particular mGluR4 activity, by any suitable known methodology known in the art. For example, Chinese Hamster Ovary (CHO) cells transfected with human mGluR4 or HEK cells co-transfected with rat mGluR4 and the G-protein regulated Inwardly Rectifying Potassium channel (GIRK) were plated in clear bottom assay plates for assay in a Hamamatsu FDSS Fluorometric Plate Reader. The cells were loaded with either a Ca2+-sensitive fluorescent dye or the thallium responsive dye and the plates were washed and placed into a suitable kinetic plate reader. For human mGluR4 assays, a fluorescence baseline was established for 3-5 seconds, the disclosed compounds were then added to the cells, and the response in cells was measured. Approximately two and a half minutes later, a concentration of mGluR4 orthosteric agonist (e.g. glutamate, L-AP4, or L-SOP) eliciting approximately 20% (EC20) of the maximal agonist response was added to the cells, and the response was measured. Two minutes later, a concentration of mGluR4 agonist (e.g. glutamate, L-AP4, or L-SOP) eliciting 80% (EC80) of the maximal agonist response was added to the cells, and the response was measured. For rat mGluR4/GIRK experiments, a baseline was established for approximately five seconds, disclosed compounds were added, and either an EC20 or EC80 concentration of agonist was added approximately two and one half minutes later.
The above described assay operated in two modes. In the first mode, a range of concentrations of the disclosed compounds are added to cells, followed by a single fixed concentration of agonist. If the compound acts as a potentiatior, an EC50 value for potentiation and a maximum extent of potentiation by the compound at this concentration of agonist is determined by non-linear curve fitting. If the compound acts as an antagonist, an IC50 value is determined by non-linear curve fitting. In the second mode, several fixed concentrations of the disclosed compounds are added to various wells on a plate, followed by a range in concentrations of agonist for each concentration of disclosed compound. The EC50 values for the agonist at each concentration of compound are determined by non-linear curve fitting. A decrease in the EC50 value of the agonist with increasing concentrations of the sample compound (a leftward shift of the agonist concentration-response curve) is an indication of the degree of mGluR4 potentiation at a given concentration of the sample compound. A decrease in the maximal response of the agonist with increasing concentrations of the sample compounds, with or without a rightward shift in agonist potency, is an indication of the degree of antagonism at mGluR4. The second mode also indicates whether the sample compounds also affect the maximum response to mGluR4 to agonists.

EC50 (human mGlu4; read-out: mGlu4 PAM EC50) [nM] | Structure (SMILES) | also measured
– | O=C(Nc1ccc2c(OCC3CCOC3)n[nH]c2c1)c1ccccn1 (stereo not shown) | Kp (Brain-Plasma Kp; rat): 2.09; EC50 (human mGlu4; read-out: hmGluR4 PAM EC50): 360 nM
– | Cn1nc(C(=O)NC2CC(F)(F)C2)c2ccc(NC(=O)c3ccc(F)cn3)cc21 | Kp (Brain-Plasma Kp; rat): 1.09; EC50 (human mGlu4; read-out: hmGluR4 PAM EC50): 324 nM
– | Cn1nc(OC[C@@H]2COCCO2)c2ccc(NC(=O)c3ccccn3)cc21 | Kp (Brain-Plasma Kp; rat): 1.47; EC50 (human mGlu4; read-out: hmGluR4 PAM EC50): 119 nM
– | O=C(Nc1ccc2c(OC[C@@H]3CCOC3)n[nH]c2c1)c1ccccn1 | Kp (Brain-Plasma Kp; rat): 1.44; EC50 (human mGlu4; read-out: hmGluR4 PAM EC50): 201 nM
– | O=C(Nc1ccc2c(OC[C@H]3CCOC3)n[nH]c2c1)c1ccccn1 | Kp (Brain-Plasma Kp; rat): 1.42; EC50 (human mGlu4; read-out: hmGluR4 PAM EC50): 228 nM
– | Cn1nc(C(=O)NC23CC(F)(C2)C3)c2ccc(NC(=O)c3ccccn3)cc21 | Kp (Brain-Plasma Kp; rat): 1.43; EC50 (human mGlu4; read-out: hmGluR4 PAM EC50): 569 nM
– | Cn1nc(OCC2CCOCC2)c2ccc(NC(=O)c3ccc(F)cn3)cc21 | Kp (Brain-Plasma Kp): 3.29; EC50 (human mGlu4; read-out: hmGluR4 PAM EC50): 99.2 nM
255 | Cn1nc(OCCN2CCOCC2)c2ccc(NC(=O)c3ncccc3O)cc21 [Compound 78] | –
27.3 | Cn1nc(OC[C@@H]2CCOC2)c2ccc(NC(=O)c3ncccc3N)cc21 [Compound 79] | –
36.9 | Cn1nc(OC[C@H]2CCOC2)c2ccc(NC(=O)c3ncccc3N)cc21 [Compound 80] | –
205 | Cn1nc(OC[C@H]2COCCO2)c2ccc(NC(=O)c3ccccn3)cc21 [Compound 81] | –
66.1 | Cn1nc(OCC2COCCO2)c2ccc(NC(=O)c3ncccc3N)cc21 (stereo not shown) [Compound 82] | –
120 | Cn1nc(OC[C@@H]2CCOC2)c2ncc(NC(=O)c3ncccc3N)cc21 [Compound 83] | –
166 | Cn1nc(OC[C@H]2CCOC2)c2ncc(NC(=O)c3ncccc3N)cc21 [Compound 84] | –
170 | Cn1nc(OCC2CCCOC2)c2ccc(NC(=O)c3ccccn3)cc21 (stereo not shown) [Compound 85] | –
182 | Cn1nc(OCC2CCCOC2)c2ccc(NC(=O)c3ncccc3N)cc21 (stereo not shown) [Compound 86] | –
100 | Cn1nc(OCC2CCCOC2)c2ccc(NC(=O)c3ncccc3O)cc21 (stereo not shown) [Compound 87] | –
63.8 | Cn1nc(OCC2CCCOC2)c2ccc(Nc3n[nH]c4cccnc34)cc21 (stereo not shown) [Compound 88] | –
181 | Cn1nc(OCC2CCCOC2)c2ncc(NC(=O)c3ncccc3N)cc21 (stereo not shown) [Compound 89] | –
574 | Cc1ccc(C(=O)Nc2ccc3c(OCC4CCOC4)nn(C)c3c2)nc1 (stereo not shown) [Compound 90] | –

EC50 (human mGlu4; read-out: mGlu4 PAM EC50) [nM] | Structure (SMILES) | also measured
49.6 | Cn1nc(OCC2CCOC2)c2ccc(NC(=O)c3ccc(F)cn3)cc21 (stereo not shown) [Compound 91] | –
115 | Cn1nc(OCC2CCOC2)c2ccc(NC(=O)c3nccnc3N)cc21 (stereo not shown) [Compound 92] | –
30.5 | Cn1nc(OC[C@@H]2COCCO2)c2ccc(NC(=O)c3ncccc3N)cc21 [Compound 93] | –
58.7 | Cn1nc(OC[C@H]2COCCO2)c2ccc(NC(=O)c3ncccc3N)cc21 [Compound 94] | –
211 | Cn1nc(OCC2CCOC2)c2ccc(NC(=O)c3cccc(F)n3)cc21 (stereo not shown) [Compound 95] | –
339 | Cc1ccoc1C(=O)Nc1ccc2c(OCC3CCOC3)nn(C)c2c1 (stereo not shown) [Compound 96] | –
505 | Cn1nc(OCC2CCOC2)c2ccc(NC(=O)c3ncccc3F)cc21 (stereo not shown) [Compound 97] | –
991 | Cn1nc(OCC2CCOC2)c2ccc(NC(=O)c3cc(F)ccn3)cc21 (stereo not shown) [Compound 98] | –
820 | Cn1nc(OCC2CCOC2)c2ccc(NC(=O)c3cccc(Cl)n3)cc21 (stereo not shown) [Compound 99] | –
801 | Cn1nc(OCC2CCOC2)c2ccc(NC(=O)c3ncc(F)cc3F)cc21 (stereo not shown) [Compound 100] | –
75.6 | Cn1nc(OCC2COC(C)(C)C2)c2ccc(NC(=O)c3ccccn3)cc21 (stereo not shown) [Compound 101] | –
109 | Cn1nc(OCC2COC(C)(C)C2)c2ccc(NC(=O)c3ncccc3N)cc21 (stereo not shown) [Compound 102] | –
297 | Cn1nc(OCC2COC(C)(C)C2)c2ccc(NC(=O)c3ccc(F)cn3)cc21 (stereo not shown) [Compound 103] | –
58.8 | Cn1nc(OCC2CCOC(C)(C)C2)c2ccc(NC(=O)c3ccccn3)cc21 (stereo not shown) [Compound 104] | –
127 | Cn1nc(OCC2CCOC(C)(C)C2)c2ccc(NC(=O)c3ncccc3N)cc21 (stereo not shown) [Compound 105] | –
277 | Cn1nc(OCC2CCOC(C)(C)C2)c2ccc(NC(=O)c3ccc(F)cn3)cc21 (stereo not shown) [Compound 106] | –
45.1 | CC1CC(COc2nn(C)c3cc(NC(=O)c4ccccn4)ccc23)CC(C)O1 (stereo not shown) [Compound 107] | –
187 | CC1CC(COc2nn(C)c3cc(NC(=O)c4ncccc4N)ccc23)CC(C)O1 (stereo not shown) [Compound 108] | –
83.6 | CC1CC(COc2nn(C)c3cc(NC(=O)c4ccc(F)cn4)ccc23)CC(C)O1 (stereo not shown) [Compound 109] | –
50.4 | [2H]C([2H])([2H])n1nc(OCC2CCOC2)c2ccc(NC(=O)c3ccccn3)cc21 (stereo not shown) [Compound 110] | –

EC50 (human mGlu4; read-out: mGlu4 PAM EC50) [nM] | Structure (SMILES) | also measured
421 | Cn1nc(C(=O)NC2CCOC2)c2ccc(NC(=O)c3ncccc3N)cc21 (stereo not shown) [Compound 111] | –
176 | Cn1nc(OCC2COCCO2)c2ccc(Nc3n[nH]c4ncccc34)cc21 (stereo not shown) [Compound 112] | –
142 | Cn1nc(OC2CCS(=O)(=O)CC2)c2ccc(NC(=O)c3ncccc3N)cc21 [Compound 113] | –
81.2 | Cn1nc(OCC2CCOC2)c2ccc(NC(=O)c3ccccn3)cc21 (stereo not shown) [Compound 114] | –
75.4 | Cn1nc(OCC2CCOC2)c2ccc(NC(=O)c3ncccc3N)cc21 (stereo not shown) [Compound 115] | –
63 | Cn1nc(OCC2CCOCC2)c2ccc(NC(=O)c3ccccn3)cc21 [Compound 116] | –
87.7 | Cn1nc(OCC2CCOCC2)c2ccc(NC(=O)c3ncccc3N)cc21 [Compound 117] | –
36.8 | Cn1nc(OCC2CCOCC2)c2ccc(NC(=O)c3ncccc3O)cc21 [Compound 118] | –
24.6 | Cn1nc(OC[C@@H]2COCCO2)c2ccc(NC(=O)c3ncccc3N)cc21 [Compound 130] | –
– | Cn1nc(OCC2CCOC2)c2ccc(NC(=O)c3ncccc3N)cc21 (stereo not shown) [drawing 241] | Kp (Brain-Plasma Kp; rat): 3.09; EC50 (human mGlu4; read-out: hmGluR4 PAM EC50): 75.4 nM
– | Cn1nc(OCC2CCOC2)c2ncc(NC(=O)c3ncccc3N)cc21 (stereo not shown) [drawing 242] | Kp (Brain-Plasma Kp; rat): 0.72; EC50 (human mGlu4; read-out: hmGluR4 PAM EC50): 86.8 nM
– | Cn1nc(OCC2CCOCC2)c2ncc(NC(=O)c3ccccn3)cc21 [drawing 243] | Kp (Brain-Plasma Kp; rat): 1.51; EC50 (human mGlu4; read-out: hmGluR4 PAM EC50): 394 nM
– | Cn1nc(OC[C@@H]2CCOC2)c2ccc(NC(=O)c3ncccc3N)cc21 [drawing 244] | Kp (Brain-Plasma Kp; rat): 2.47; EC50 (human mGlu4; read-out: hmGluR4 PAM EC50): 27.3 nM
– | Cn1nc(OC[C@H]2CCOC2)c2ccc(NC(=O)c3ncccc3N)cc21 [drawing 245] | Kp (Brain-Plasma Kp; rat): 2.9; EC50 (human mGlu4; read-out: hmGluR4 PAM EC50): 24.2 nM
– | Cn1nc(OC[C@@H]2CCOC2)c2ncc(NC(=O)c3ncccc3N)cc21 [drawing 246] | Kp (Brain-Plasma Kp; rat): 1.84; EC50 (human mGlu4; read-out: hmGluR4 PAM EC50): 120 nM
– | Cn1nc(OC[C@H]2CCOC2)c2ncc(NC(=O)c3ncccc3N)cc21 [drawing 247] | Kp (Brain-Plasma Kp; rat): 1.83; EC50 (human mGlu4; read-out: hmGluR4 PAM EC50): 166 nM
– | Cn1nc(OC[C@@H]2COCCO2)c2ccc(NC(=O)c3ncccc3N)cc21 [drawing 248] | Kp (Brain-Plasma Kp; rat): 2.3; EC50 (human mGlu4; read-out: hmGluR4 PAM EC50): 50.1 nM
– | Cn1nc(OC[C@H]2COCCO2)c2ccc(NC(=O)c3ncccc3N)cc21 [drawing 249] | Kp (Brain-Plasma Kp; rat): 1.88; EC50 (human mGlu4; read-out: hmGluR4 PAM EC50): 58.7 nM
– | Cn1nc(OCC2CCOC2)c2ccc(NC(=O)c3cccc(F)n3)cc21 (stereo not shown) [drawing 251] | Kp (Brain-Plasma Kp; rat): 3.35; EC50 (human mGlu4; read-out: hmGluR4 PAM EC50): 266 nM
